In patent US12539292B2, “BRM targeting compounds and associated methods of use” (Arvinas Operations, Inc., priority 2018, dated 2026):
Like-named read-outs stand apart in the source and are kept apart here. Values belong to the molecule of their own block, whether it stands above or below them.

Target: T1, BRM (Homo sapiens, UniProt P51531)
T1 construct: In-Cell Western Screen of BRM Degradation in SW1573 Cells; endogenous in cells; host or cells: SW1573
Test: In-cell Western screen of BRM degradation in SW1573 cells (Dmax and DC50)
Format: cell-based
In short: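 After adhering overnight, cells received compound for 18-20 hours. They were then washed in cold DPBS, fixed with 4% PFA for 20 min and permeabilized for 30 min. Blocking and fluorescent secondary staining followed before imaging.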

[1] = BRM degradation, SW1573 cells, read-out: DC50
[2] = BRM degradation, SW1573 cells, when tested at the top concentration of between 0.3 and 10 μM, read-out: Dmax (%) (% degraded)
[3] = BRM degradation, SW1573 cells, read-out: Dmax (% degraded)
[4] = SW1573, % degraded, when tested at the top concentration of between 0.3 and 10 μM, read-out: BRM Dmax (%)
[5] = target protein degradation, read-out: BRM DC50

T1 sequence (P51531 whole entry): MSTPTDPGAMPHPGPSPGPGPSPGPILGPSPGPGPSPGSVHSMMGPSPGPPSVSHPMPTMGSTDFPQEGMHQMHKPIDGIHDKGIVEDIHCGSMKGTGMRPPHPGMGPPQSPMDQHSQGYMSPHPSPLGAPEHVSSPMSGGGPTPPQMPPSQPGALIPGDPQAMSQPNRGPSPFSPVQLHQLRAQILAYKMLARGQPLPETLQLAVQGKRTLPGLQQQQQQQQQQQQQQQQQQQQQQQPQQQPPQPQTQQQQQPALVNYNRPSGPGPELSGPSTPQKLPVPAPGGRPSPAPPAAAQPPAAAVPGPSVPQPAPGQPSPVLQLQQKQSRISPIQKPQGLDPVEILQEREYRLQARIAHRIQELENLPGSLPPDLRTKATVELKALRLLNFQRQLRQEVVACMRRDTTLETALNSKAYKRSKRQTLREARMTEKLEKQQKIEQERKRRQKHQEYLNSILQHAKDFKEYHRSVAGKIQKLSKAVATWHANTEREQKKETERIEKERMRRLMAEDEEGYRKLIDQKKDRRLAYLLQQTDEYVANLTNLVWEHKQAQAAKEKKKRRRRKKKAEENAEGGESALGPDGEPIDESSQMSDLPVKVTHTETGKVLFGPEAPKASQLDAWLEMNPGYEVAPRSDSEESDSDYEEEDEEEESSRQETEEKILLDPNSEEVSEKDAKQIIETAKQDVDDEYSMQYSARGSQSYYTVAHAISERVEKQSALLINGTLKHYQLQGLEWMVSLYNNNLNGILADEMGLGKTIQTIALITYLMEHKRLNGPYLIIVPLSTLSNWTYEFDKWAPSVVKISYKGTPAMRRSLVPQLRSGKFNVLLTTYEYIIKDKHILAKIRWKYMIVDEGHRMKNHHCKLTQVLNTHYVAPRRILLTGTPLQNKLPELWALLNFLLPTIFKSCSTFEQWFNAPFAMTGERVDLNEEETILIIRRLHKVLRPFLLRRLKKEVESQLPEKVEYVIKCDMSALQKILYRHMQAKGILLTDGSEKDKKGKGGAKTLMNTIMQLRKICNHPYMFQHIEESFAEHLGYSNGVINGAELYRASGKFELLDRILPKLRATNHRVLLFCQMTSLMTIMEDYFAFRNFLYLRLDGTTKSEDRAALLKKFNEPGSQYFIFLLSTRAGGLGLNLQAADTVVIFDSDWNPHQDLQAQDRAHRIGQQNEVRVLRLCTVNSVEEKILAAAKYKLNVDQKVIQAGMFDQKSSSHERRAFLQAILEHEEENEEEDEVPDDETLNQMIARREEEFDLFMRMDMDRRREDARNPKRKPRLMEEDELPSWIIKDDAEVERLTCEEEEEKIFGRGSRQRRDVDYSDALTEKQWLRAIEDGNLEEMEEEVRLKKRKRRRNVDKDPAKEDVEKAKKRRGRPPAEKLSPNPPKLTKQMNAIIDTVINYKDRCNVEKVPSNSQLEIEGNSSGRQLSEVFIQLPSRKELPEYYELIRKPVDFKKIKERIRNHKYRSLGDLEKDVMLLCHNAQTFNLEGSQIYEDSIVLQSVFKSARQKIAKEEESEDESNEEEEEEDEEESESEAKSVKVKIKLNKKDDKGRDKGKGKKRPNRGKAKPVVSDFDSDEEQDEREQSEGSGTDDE

Structure (SMILES): Cc1ncsc1-c1ccc([C@H](COCC2CCOCC2)NC(=O)[C@@H]2C[C@@H](O)CN2C(=O)[C@@H](c2cc(OCCN3CCN(CCOc4cc(N5C6CCC5CN(c5cc(-c7ccccc7O)nnc5N)C6)ccn4)CC3)no2)C(C)C)cc1 [compound 130, (2S,4R)-1-((2R)-2-(3-(2-(4-(2-((4-(3-(3-amino-6-(2-hydroxyphenyl)pyridazin-4-yl)-3,8-diazabicyclo[3.2.1]octan-8-yl)pyridin-2-yl)oxy)ethyl)piperazin-1-yl)ethoxy)isoxazol-5-yl)-3-methylbutanoyl)-4-hydroxy-N-((R)-1-(4-(4-methylthiazol-5-yl)phenyl)-2-((tetrahydro-2H-pyran-4-yl)methoxy)ethyl)pyrrolidine-2-carboxamide]
- DC50 [1]: 2.5 to 10 nM
- Dmax [2]: > 75%

Structure (SMILES): Cc1ncsc1-c1ccc([C@H](C)NC(=O)[C@@H]2C[C@@H](O)CN2C(=O)[C@H](c2cc(N3CCC(C#CCN4CCC(Oc5cc(N6C7CCC6CN(c6cc(-c8ccccc8O)nnc6N)C7)ccn5)CC4)CC3)no2)C(C)C)cc1 [compound 676, (2S,4R)-1-((2S)-2-(3-(4-(3-(4-((4-(3-(3-amino-6-(2-hydroxyphenyl)pyridazin-4-yl)-3,8-diazabicyclo[3.2.1]octan-8-yl)pyridin-2-yl)oxy)piperidin-1-yl)prop-1-yn-1-yl)piperidin-1-yl)isoxazol-5-yl)-3-methylbutanoyl)-4-hydroxy-N-((S)-1-(4-(4-methylthiazol-5-yl)phenyl)ethyl)pyrrolidine-2-carboxamide]
- DC50 [1]: 2.5 to 10 nM
- Dmax [3]: > 75%

- DC50 (degradation of BRM, read-out: BRM DC50): > 30 nM
Structure (SMILES): Cc1ncsc1-c1ccc([C@H](C)NC(=O)[C@@H]2C[C@@H](O)CN2C(=O)[C@H](c2cc(N3CCN(CC4CCN(C[C@H]5C[C@H](Oc6cc(N7C8CCC7CN(c7cc(-c9ccccc9O)nnc7N)C8)ccn6)C5)CC4)CC3)no2)C(C)C)cn1 [compound 426, (2S,4R)-1-((2S)-2-(3-(4-((1-(((11,3r)-3-((4-(3-(3-amino-6-(2-hydroxyphenyl)pyridazin-4-yl)-3,8-diazabicyclo[3.2.1]octan-8-yl)pyridin-2-yl)oxy)cyclobutyl)methyl)piperidin-4-yl)methyl)piperazin-1-yl)isoxazol-5-yl)-3-methylbutanoyl)-4-hydroxy-N-((S)-1-(6-(4-methylthiazol-5-yl)pyridin-3-yl)ethyl)pyrrolidine-2-carboxamide]

- Dmax (BRM degradation, SW1573 cells, Table 2D, read-out: **Dmax (%) (% degraded)): > 75%
- DC50 (BRM degradation, SW1573 cells, Table 2D, read-out: *DC50): < 2.5 nM
Structure (SMILES): Cc1ncsc1-c1ccc([C@H](C)NC(=O)[C@@H]2C[C@@H](O)CN2C(=O)[C@@H](c2cc(N3CCC(CN4CCC([C@@H](C)n5cc(-c6cc(-c7ccccc7O)nnc6N)cn5)CC4)CC3)no2)C(C)C)cc1 (single isomer, unassigned) [compound 574]

- DC50 [1]: > 30 nM
Structure (SMILES): Cc1ncsc1-c1ccc([C@@H](CN)NC(=O)[C@@H]2C[C@@H](O)CN2C(=O)[C@H](c2cc(OCCN3CCN(CCOc4cc(N5C6CCC5CN(c5cc(-c7ccccc7O)nnc5N)C6)ccn4)CC3)no2)C(C)C)cc1 [compound 255, (2S,4R)-N-((S)-2-amino-1-(4-(4-methylthiazol-5-yl)phenyl)ethyl)-1-((2S)-2-(3-(2-(4-(2-((4-(3-(3-amino-6-(2-hydroxyphenyl)pyridazin-4-yl)-3,8-diazabicyclo[3.2.1]octan-8-yl)pyridin-2-yl)oxy)ethyl)piperazin-1-yl)ethoxy)isoxazol-5-yl)-3-methylbutanoyl)-4-hydroxypyrrolidine-2-carboxamide]

Structure (SMILES): Cc1ncsc1-c1ccc([C@H](C)NC(=O)[C@@H]2C[C@@H](O)CN2C(=O)[C@@H](c2cc(OCCN3CCN(C[C@H]4C[C@H](Oc5cc(N6C7CCC6CN(c6cc(-c8ccccc8O)nnc6N)C7)ccn5)C4)C[C@@H]3C)no2)C(C)C)cn1 [compound 296, (2S,4R)-1-((2R)-2-(3-(2-((2S)-4-(((1r,3S)-3-((4-(3-(3-amino-6-(2-hydroxyphenyl)pyridazin-4-yl)-3,8-diazabicyclo[3.2.1]octan-8-yl)pyridin-2-yl)oxy)cyclobutyl)methyl)-2-methylpiperazin-1-yl)ethoxy)isoxazol-5-yl)-3-methylbutanoyl)-4-hydroxy-N-((S)-1-(6-(4-methylthiazol-5-yl)pyridin-3-yl)ethyl)pyrrolidine-2-carboxamide]
- DC50 [1]: < 2.5 nM
- Dmax (BRM degradation, SW1573 cells, tested at the top concentration of between 0.3 and 10 μM, read-out: Dmax (%) (% degraded)): > 75%

Structure (SMILES): Cc1n[nH]c(C)c1-c1ccc([C@H](C)NC(=O)[C@@H]2C[C@@H](O)CN2C(=O)[C@H](c2cc(OCCN3CCC(O[C@H]4C[C@H](Oc5cc(N6C7CCC6CN(c6cc(-c8ccccc8O)nnc6N)C7)ccn5)C4)CC3)no2)C(C)C)cc1 [compound 377, (2S,4R)-1-((2S)-2-(3-(2-(4-((1r,3S)-3-((4-(3-(3-amino-6-(2-hydroxyphenyl)pyridazin-4-yl)-3,8-diazabicyclo[3.2.1]octan-8-yl)pyridin-2-yl)oxy)cyclobutoxy)piperidin-1-yl)ethoxy)isoxazol-5-yl)-3-methylbutanoyl)-N-((S)-1-(4-(3,5-dimethyl-1H-pyrazol-4-yl)phenyl)ethyl)-4-hydroxypyrrolidine-2-carboxamide]
- Dmax [4]: > 75%
- DC50 [5]: 10 to 30 nM

Structure (SMILES): Cc1ncsc1-c1ccc([C@H](C)NC(=O)[C@@H]2C[C@@H](O)CN2C(=O)[C@H](c2cc(N3CCC(N4CCC(O[C@H]5C[C@H](Oc6cc(N7C8CCC7CN(c7cc(-c9ccccc9O)nnc7N)C8)ccn6)C5)CC4)CC3)no2)C(C)C)cc1 [compound 684, (2S,4R)-1-((2S)-2-(3-(4-((1r,3S)-3-((4-(3-(3-amino-6-(2-hydroxyphenyl)pyridazin-4-yl)-3,8-diazabicyclo[3.2.1]octan-8-yl)pyridin-2-yl)oxy)cyclobutoxy)-[1,4'-bipiperidin]-1'-yl)isoxazol-5-yl)-3-methylbutanoyl)-4-hydroxy-N-((S)-1-(4-(4-methylthiazol-5-yl)phenyl)ethyl)pyrrolidine-2-carboxamide]
- DC50 [1]: 10 to 30 nM
- Dmax [3]: 50 to 75%

Structure (SMILES): CC(C)[C@@H](C(=O)N1C[C@H](O)C[C@H]1C(=O)N[C@@H](C)c1ccc(-c2nccn2C)cc1)c1cc(OCCN2CCN(CCOc3cc(N4C5CCC4CN(c4cc(-c6ccccc6O)nnc4N)C5)ccn3)CC2)no1 [compound 115, (2S,4R)-1-((2R)-2-(3-(2-(4-(2-((4-(3-(3-amino-6-(2-hydroxyphenyl)pyridazin-4-yl)-3,8-diazabicyclo[3.2.1]octan-8-yl)pyridin-2-yl)oxy)ethyl)piperazin-1-yl)ethoxy)isoxazol-5-yl)-3-methylbutanoyl)-4-hydroxy-N-((S)-1-(4-(1-methyl-1H-imidazol-2-yl)phenyl)ethyl)pyrrolidine-2-carboxamide]
- DC50 [1]: > 30 nM
- Dmax [2]: 50 to 75%

Structure (SMILES): Cc1ncsc1-c1ccc([C@H](C)NC(=O)[C@@H]2C[C@@H](O)CN2C(=O)[C@@H](c2cc(OCCOCCOc3cc(N4C5CCC4CN(c4cc(-c6ccccc6O)nnc4N)C5)ccn3)no2)C(C)C)cc1 [compound 357, (2S,4R)-1-((2R)-2-(3-(2-(2-((4-(3-(3-amino-6-(2-hydroxyphenyl)pyridazin-4-yl)-3,8-diazabicyclo[3.2.1]octan-8-yl)pyridin-2-yl)oxy)ethoxy)ethoxy)isoxazol-5-yl)-3-methylbutanoyl)-4-hydroxy-N-((S)-1-(4-(4-methylthiazol-5-yl)phenyl)ethyl)pyrrolidine-2-carboxamide]
- Dmax [4]: > 75%
- DC50 [5]: < 2.5 nM
